Assay results taken from patent US11771681B2, “Therapeutic compounds” (SMALL PHARMA LTD, priority 2019, dated 2023).

Tests used:
[1] = In vitro intrinsic clearance in human hepatocytes; assay type: in vitro ADME; details: both sexes, pooled hepatocytes in suspension, human (mixed gender) hepatocytes pooled from 10 donors, 0.545 million cells/mL, up to 60 minutes at 37° C., weighted on ratio of D0, D1 and D2
Procedure: (§1) Human (mixed gender) hepatocytes pooled from 10 donors (0.545 million cells/mL) were used to investigate the in vitro intrinsic clearance of DMT and 6 deuterated analogues.
(§2) A concentration of 5 μM was used for all test compounds, as well as sumatriptan, serotonin, benzylamine controls. This concentration was chosen in order to maximise the signal-to-noise ratio, while remaining under the Michaelis constant (Km) for the monoamine oxidase enzyme (MAO). Diltiazem and diclofenac controls were used at a laboratory-validated concentration of 1 μM.
(§3) Test compounds were mixed with the hepatocyte suspension within a 96-well plate and incubated for up to 60 minutes at 37° C. […] At 7 time points, small aliquots were withdrawn, and the test compound/blend concentration therein was measured by LC-MS/MS. The time points measured were 2, 4, 8, 15, 30, 45 and 60 minutes. […]
(§4) The MRM transitions were determined from a preliminary analysis of DMT samples containing either no deuterium (for D0 transition), or high levels of either D1 or D2 deuteration (for the D1 and D2 transitions respectively).
(§5) The resulting concentration-time profile was then used to calculate intrinsic clearance (CLint) and half-life (t½). […] Intrinsic clearance is calculated from the slope/elimination rate constant and the formula is CLint=(−1000*slope)/cell density in 1E6 cells/ml, to give units of microlitre/min/million cells. […]

human hepatocytes = test: In vitro intrinsic clearance in human hepatocytes; assay type: in vitro ADME; details: human (mixed gender) hepatocytes pooled from 10 donors, 0.545 million cells/mL; 5 μM; up to 60 minutes at 37° C.; calculated, weighted on ratio of D0, D1 and D2
Procedure: as §1, §2, §3, §4, §5

CN(C)CCc1c[nH]c2ccccc12 [DMT, N,N-dimethyltryptamine]
hepatocyte CLint at 5 μM [1]: 13.8 µL/min/1e6 cells
Half-life (human hepatocytes): 1.54 h
